Results published in ChEMBL document CHEMBL1142855, “Hydroxylated N-alkyl-4-piperidinyl-2,3-diarylpyrrole derivatives as potent broad-spectrum anticoccidial agents” (Bioorg Med Chem Lett, 2005).

Columns and labels:
[1] = system: Eimeria tenella; test: Anticoccidial activity as percentage reduction in oocyst production in birds infected with Eimeria tenella after 100 ppm dose; Range is 50-79%; type: functional
[2] = system: Eimeria acervulina; test: Anticoccidial activity as percentage reduction in oocyst production in birds infected with Eimeria acervulina after 100 ppm dose; type: functional
[3] = system: Eimeria tenella; test: Anticoccidial activity as percentage reduction in oocyst production in birds infected with Eimeria tenella after 100 ppm dose; type: functional
[4] = molecular target: cGMP-dependent protein kinase (Eimeria tenella, UniProt Q8MMZ8); test: Inhibitory activity against cGMP-dependent protein kinase from Eimeria tenella
cGMP-dependent protein kinase, sequence (Q8MMZ8 whole entry): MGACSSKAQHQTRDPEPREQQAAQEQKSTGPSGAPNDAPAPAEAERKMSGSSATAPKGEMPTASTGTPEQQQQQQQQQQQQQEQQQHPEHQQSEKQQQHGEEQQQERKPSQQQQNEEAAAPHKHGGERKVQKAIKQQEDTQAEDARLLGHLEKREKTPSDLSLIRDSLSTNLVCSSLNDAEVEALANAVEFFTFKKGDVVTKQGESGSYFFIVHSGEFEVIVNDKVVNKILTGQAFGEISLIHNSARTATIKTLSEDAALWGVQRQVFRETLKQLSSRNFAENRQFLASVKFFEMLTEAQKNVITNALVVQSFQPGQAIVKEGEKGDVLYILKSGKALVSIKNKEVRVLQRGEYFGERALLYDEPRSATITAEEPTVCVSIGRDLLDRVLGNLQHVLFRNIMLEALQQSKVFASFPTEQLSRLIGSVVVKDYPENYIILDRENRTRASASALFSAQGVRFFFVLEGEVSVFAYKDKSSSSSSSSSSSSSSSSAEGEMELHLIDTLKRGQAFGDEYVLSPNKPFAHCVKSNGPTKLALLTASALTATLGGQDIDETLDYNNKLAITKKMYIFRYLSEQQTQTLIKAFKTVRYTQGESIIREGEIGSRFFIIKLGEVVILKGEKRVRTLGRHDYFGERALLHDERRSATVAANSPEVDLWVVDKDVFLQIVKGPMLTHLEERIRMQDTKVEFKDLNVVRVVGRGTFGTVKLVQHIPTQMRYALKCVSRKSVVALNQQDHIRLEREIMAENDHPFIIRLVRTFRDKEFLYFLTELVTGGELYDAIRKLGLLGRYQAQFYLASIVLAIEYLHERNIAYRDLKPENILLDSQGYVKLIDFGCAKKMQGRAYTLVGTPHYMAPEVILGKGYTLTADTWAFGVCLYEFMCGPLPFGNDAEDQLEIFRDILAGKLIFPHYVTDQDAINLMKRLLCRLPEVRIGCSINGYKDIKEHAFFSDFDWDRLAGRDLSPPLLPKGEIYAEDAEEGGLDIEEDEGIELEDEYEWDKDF

Structure (SMILES): OCCCN1CCC(c2cc(-c3ccncc3)c(-c3ccc(F)cc3)[nH]2)CC1
- Anticoccidial Activity [1]: 79%
- Anticoccidial Activity [2]: >80%

Structure (SMILES): OCCN1CCC(c2cc(-c3ccncc3)c(-c3ccc(F)cc3)[nH]2)CC1
- Anticoccidial Activity [3]: >80%
- Anticoccidial Activity [2]: >80%

Structure (SMILES): CCCN1CCC(c2cc(-c3ccncc3)c(-c3ccc(F)cc3)[nH]2)CC1
- Anticoccidial Activity [3]: <50%
- Anticoccidial Activity [2]: <50%

Structure (SMILES): CC(O)[C@H](CO)N1CCC(c2cc(-c3ccncc3)c(-c3ccc(F)cc3)[nH]2)CC1 (stereo partly specified)
- Anticoccidial Activity [3]: >80%
- Anticoccidial Activity [2]: >80%
- IC50 [4]: 820 pM

Structure (SMILES): OCCCCN1CCC(c2cc(-c3ccncc3)c(-c3ccc(F)cc3)[nH]2)CC1
- Anticoccidial Activity [3]: >80%
- Anticoccidial Activity [2]: >80%
- IC50 [4]: 1340 pM

Structure (SMILES): OC(COCc1ccco1)CN1CCC(c2cc(-c3ccncc3)c(-c3ccc(F)cc3)[nH]2)CC1 (stereo unspecified)
- Anticoccidial Activity [3]: <50%
- Anticoccidial Activity [2]: <50%
- IC50 [4]: 820 pM

Structure (SMILES): C[C@H](O)CN1CCC(c2cc(-c3ccncc3)c(-c3ccc(F)cc3)[nH]2)CC1
- Anticoccidial Activity [3]: >80%
- Anticoccidial Activity [2]: >80%
- IC50 [4]: 480 pM

Structure (SMILES): CCC(O)CN1CCC(c2cc(-c3ccncc3)c(-c3ccc(F)cc3)[nH]2)CC1 (stereo unspecified)
- Anticoccidial Activity [3]: >80%
- Anticoccidial Activity [2]: >80%
- IC50 [4]: 710 pM

Structure (SMILES): CCCC(O)CN1CCC(c2cc(-c3ccncc3)c(-c3ccc(F)cc3)[nH]2)CC1 (stereo unspecified)
- Anticoccidial Activity [3]: <50%
- Anticoccidial Activity [2]: <50%
- IC50 [4]: 380 pM

Structure (SMILES): CCOCC(O)CN1CCC(c2cc(-c3ccncc3)c(-c3ccc(F)cc3)[nH]2)CC1 (stereo unspecified)
- Anticoccidial Activity [1]: 79%
- Anticoccidial Activity [2]: >80%
- IC50 [4]: 590 pM

Structure (SMILES): CCCCC(O)CN1CCC(c2cc(-c3ccncc3)c(-c3ccc(F)cc3)[nH]2)CC1 (stereo unspecified)
- Anticoccidial Activity [3]: <50%
- Anticoccidial Activity [2]: <50%
- IC50 [4]: 410 pM

Structure (SMILES): CC(O)C(O)CN1CCC(c2cc(-c3ccncc3)c(-c3ccc(F)cc3)[nH]2)CC1 (stereo unspecified)
- Anticoccidial Activity [3]: >80%
- Anticoccidial Activity [2]: >80%
- IC50 [4]: 400 pM

Structure (SMILES): OC(Cc1ccccc1)CN1CCC(c2cc(-c3ccncc3)c(-c3ccc(F)cc3)[nH]2)CC1 (stereo unspecified)
- Anticoccidial Activity [3]: <50%
- Anticoccidial Activity [2]: >80%
- IC50 [4]: 1280 pM

Structure (SMILES): OCCCCCN1CCC(c2cc(-c3ccncc3)c(-c3ccc(F)cc3)[nH]2)CC1
- Anticoccidial Activity [3]: >80%
- Anticoccidial Activity [2]: >80%
- IC50 [4]: 1460 pM

Structure (SMILES): CC(C)(C)OCC(O)CN1CCC(c2cc(-c3ccncc3)c(-c3ccc(F)cc3)[nH]2)CC1 (stereo unspecified)
- Anticoccidial Activity [3]: <50%
- Anticoccidial Activity [2]: <50%
- IC50 [4]: 980 pM

Structure (SMILES): C=CCOCC(O)CN1CCC(c2cc(-c3ccncc3)c(-c3ccc(F)cc3)[nH]2)CC1 (stereo unspecified)
- Anticoccidial Activity [3]: <50%
- Anticoccidial Activity [2]: <50%
- IC50 [4]: 800 pM

Structure (SMILES): OC(COCc1ccccc1)CN1CCC(c2cc(-c3ccncc3)c(-c3ccc(F)cc3)[nH]2)CC1 (stereo unspecified)
- Anticoccidial Activity [3]: <50%
- Anticoccidial Activity [2]: <50%
- IC50 [4]: 470 pM

Structure (SMILES): COC[C@H](O)CN1CCC(c2cc(-c3ccncc3)c(-c3ccc(F)cc3)[nH]2)CC1
- Anticoccidial Activity [3]: >80%
- Anticoccidial Activity [2]: >80%
- IC50 [4]: 690 pM

Structure (SMILES): COC[C@@H](O)CN1CCC(c2cc(-c3ccncc3)c(-c3ccc(F)cc3)[nH]2)CC1
- Anticoccidial Activity [3]: >80%
- Anticoccidial Activity [2]: >80%
- IC50 [4]: 560 pM

Structure (SMILES): CC(=O)N1C[C@H](O)CC1CN1CCC(c2cc(-c3ccncc3)c(-c3ccc(F)cc3)[nH]2)CC1 (stereo partly specified)
- IC50 [4]: 2200 pM

Structure (SMILES): CC(O)[C@H](C)N1CCC(c2cc(-c3ccncc3)c(-c3ccc(F)cc3)[nH]2)CC1 (stereo partly specified)
- Anticoccidial Activity [3]: >80%
- Anticoccidial Activity [2]: >80%
- IC50 [4]: 860 pM

Structure (SMILES): CC(C)OCC(O)CN1CCC(c2cc(-c3ccncc3)c(-c3ccc(F)cc3)[nH]2)CC1 (stereo unspecified)
- Anticoccidial Activity [3]: <50%
- Anticoccidial Activity [2]: <50%
- IC50 [4]: 690 pM

Structure (SMILES): CC(O)[C@@H](CO)N1CCC(c2cc(-c3ccncc3)c(-c3ccc(F)cc3)[nH]2)CC1 (stereo partly specified)
- Anticoccidial Activity [3]: >80%
- Anticoccidial Activity [2]: >80%
- IC50 [4]: 1010 pM

Structure (SMILES): CC(=O)OCCN1CCC(c2cc(-c3ccncc3)c(-c3ccc(F)cc3)[nH]2)CC1
- Anticoccidial Activity [3]: <50%
- Anticoccidial Activity [2]: <50%
- IC50 [4]: 2080 pM

Structure (SMILES): CCCCCCC(O)CN1CCC(c2cc(-c3ccncc3)c(-c3ccc(F)cc3)[nH]2)CC1 (stereo unspecified)
- Anticoccidial Activity [3]: <50%
- Anticoccidial Activity [2]: <50%
- IC50 [4]: 1010 pM

Structure (SMILES): C[C@@H](O)CN1CCC(c2cc(-c3ccncc3)c(-c3ccc(F)cc3)[nH]2)CC1
- Anticoccidial Activity [3]: >80%
- Anticoccidial Activity [2]: >80%
- IC50 [4]: 1200 pM

Structure (SMILES): OC(COc1ccccc1)CN1CCC(c2cc(-c3ccncc3)c(-c3ccc(F)cc3)[nH]2)CC1 (stereo unspecified)
- Anticoccidial Activity [3]: <50%
- Anticoccidial Activity [2]: <50%
- IC50 [4]: 660 pM

Structure (SMILES): O[C@H]1CNC(CN2CCC(c3cc(-c4ccncc4)c(-c4ccc(F)cc4)[nH]3)CC2)C1 (stereo partly specified)
- IC50 [4]: 160 pM

Structure (SMILES): CC(O)[C@@H](C)N1CCC(c2cc(-c3ccncc3)c(-c3ccc(F)cc3)[nH]2)CC1 (mixture of isomers)
- Anticoccidial Activity [3]: >80%
- Anticoccidial Activity [2]: >80%
- IC50 [4]: 940 pM

Structure (SMILES): OCC(O)CN1CCC(c2cc(-c3ccncc3)c(-c3ccc(F)cc3)[nH]2)CC1 (stereo in doubt; 5a)
- Anticoccidial Activity [3]: >80%
- Anticoccidial Activity [2]: <50%
- IC50 [4]: 510 pM

Structure (SMILES): OCC(O)CN1CCC(c2cc(-c3ccncc3)c(-c3ccc(F)cc3)[nH]2)CC1 (stereo in doubt; 5b)
- Anticoccidial Activity [2]: >80%
- IC50 [4]: 710 pM

Structure (SMILES): OCC(O)CN1CCC(c2cc(-c3ccncc3)c(-c3ccc(F)cc3)[nH]2)CC1 (stereo in doubt; 5e)
- IC50 [4]: 1270 pM
